Series [1] deals with +SA mammary epithelial cells. Nature of the series: Antiproliferative MTT assay on +SA mammary epithelial cells. The series is classed as cell-based, mouse. Conditions: malignant mice +SA mammary cells, 24 hour treatment, MTT. An excerpt: +SA mammary epithelial cell lines were serially passaged at subconfluent cell density. The +SA cell line was derived from an adenocarcinoma that developed spontaneously in a BALB/c female mouse. That cell line is discussed in more detail in Anderson, L. W., Danielson, K. G., Hosick, H. L. Eur. J. Cancer Clin. Oncol. 1981, 17, 1001-1008, Danielson, K G., Anderson, L. W., Hosick, H. L. Cancer Res. 1980, 40, 1812-1819.31, and Anderson, L. W., Danielson, K. G., Hosick, H. L. In Vitro. 1979, 15, 841-843. Cell culture conditions were similar to those described in detail in Shah, S. J., Gapor, A., Sylvester, P. W. Nutr. Cancer. 2003, 45, 236-246, Shah, S. J., Sylvester, P. W. Biochem. Cell. Biol. 2005, 83, 86-95, Wali, V. B., Sylvester, P. W. Lipids, 2007, 42, 1113-1123, and Wali, V. B., Bachawal, S. V., Sylvester, P. W. Exp. Biol. Med. (Maywood) 2009, 234, 639-650. Briefly, +SA cells were maintained in serum-free defined medium consisting of Dulbecco's modified Eagle's medium (DMEM)/F12 containing 5 mg/ml bovine serum albumin (BSA), […], 100 U/ml soybean trypsin inhibitor, 100 U/ml penicillin, 0.1 mg/ml streptomycin, […], and 10 ng/ml epidermal growth factor. For subculturing, cells were rinsed twice with sterile Ca^2+ and Mg^2+-free phosphate buffered saline (PBS) and incubated in 0.05% trypsin containing 0.025% EDTA in PBS for 5 minutes at 37° C. The released cells were centrifuged, resuspended in serum-free defined media and counted using a hemocytometer. A stock solution of the Compounds was prepared in DMSO. Once dissolved, this solution was added to a small volume of sterile 10% BSA in water and incubated overnight at 37° C. This solution conjugated to BSA was used to prepare various concentrations (0-40 μM) of tocotrienol analogs. DMSO was added to all treatment media such that the final DMSO concentration was the same in all treatment groups within a given experiment and was always less than 0.1%. For cytotoxicity studies, cells were seeded at a density of 5×10^4 cells/well (6 wells/group) in 24-well culture plates and allowed to grow in serum-free control defined media. After a 3 day incubation period (approximately 70% confluency), cells were divided equally into various treatment groups and exposed to their respective treatments for a 24 hour incubation period. Following the 24 hour treatment period, cell viability was measured using the MTT assay. All materials were purchased from Sigma Chemical Company (St. Louis, Mo.) unless otherwise stated.
+SA mammary epithelial cell viable number was determined by the 3-(4,5-dimethylthiazol-2-yl)-2,5-diphenyl tetrazolium bromide (MTT) colorimetric assay. On the day of assay, treatment medium was replaced with fresh growth medium containing 0.42 mg/ml MTT, and the cells in 24-well plates were incubated at 37° C. for 4 hours. Afterward, the medium was removed, and the MTT crystals were dissolved in isopropyl alcohol (1 ml/well). The optical density of each sample was read at 570 nm on a microplate reader (SpectraCount, Packard BioScience Company), against a blank prepared from cell-free cultures. The number of cells/well was calculated against a standard curve prepared by plating various concentrations of cells, as determined by hemocytometer, at the start of each experiment.
Differences among the various treatment groups in +SA cell cytotoxic studies were determined by analysis of variance (ANOVA) followed by Dunnett's t-test. The difference of P<0.05 was considered to be statistically significant as compared with vehicle-treated controls. Linear regression analysis of treatment effects on viable cell number in growth and cytotoxicity studies was used to determine the 50% growth inhibition concentration (IC50) for individual treatments.
In general terms: Tetrazolium dyes change colour on reduction, which living cells bring about.

Series [2] can be described thus: Water solubility in phosphate buffer. The series is classed as physicochemical. Conditions: phosphate buffer pH 7.4, 25° C. The procedure:
About 5.6 mg of each of α-tocotrienol and Compound 6 were added to 3 mL of phosphate buffer (pH 7.4) in amber vials. Tested solutions were maintained shaking under at 25° C. for 24 h in a constant-temperature water bath. Each solution was then centrifuged at 5,000 rpm for 10 min before collecting samples from the clear supernatant at 0, 1, 2, 4, 6, and 24 h. Each compound concentration in the aspirates was determined by HPLC. […] The solubility of α-tocotrienol maleate (Compound 6) was nearly 1000 fold that of its parent α-tocotrienol.
A Shimadzu HPLC system (Columbia, Md.) was used for quantification of α-tocotrienol and Compound 6. This system is composed of SIL 20-AHT autosampler, SPD-20A UV/VIS detector, and LC-20AB pump connected to a Dgu-20A3 degasser. Data acquisition was achieved by LC Solution software version 1.22 SP1 Shimadzu. The following chromatographic conditions were used: […] (250×4.6 mm id; Phenomenex, Torrance, Calif.), flow rate was adjusted to 1.0 mL/min, and λ was set at 295 nm. For α-tocotrienol solubility and stability studies, an isocratic elution with MeOH-EtOH—CH3CN (40:30:30, v/v/v) as mobile phase for 10 min. α-tocotrienol was eluted at 6.7 min. […] Each compound was quantified using its calibration curve for compounds peak area versus its concentration.

The nature of series [3]: Stability in phosphate buffer. Conditions: 24 h, 500 μg/mL, pH 7.4. The series is classed as physicochemical. The procedure:
The stability of each of α-tocotrienol and Compound 6 was studied at 37° C. in phosphate buffer (pH 7.4). In amber vials, 500 μg/mL of each compound were dissolved in the buffer and the solution was incubated at 37° C. At interval times (0, 0.5, 1, 2, 4, 6, and 24 h), 50 μL it samples were collected and equal volumes of methanol were added to each sample followed by HPLC analysis.
(§1) A Shimadzu HPLC system (Columbia, Md.) was used for quantification of α-tocotrienol and Compound 6. This system is composed of SIL 20-AHT autosampler, SPD-20A UV/VIS detector, and LC-20AB pump connected to a Dgu-20A3 degasser. Data acquisition was achieved by LC Solution software version 1.22 SP1 Shimadzu. The following chromatographic conditions were used: […] (250×4.6 mm id; Phenomenex, Torrance, Calif.), flow rate was adjusted to 1.0 mL/min, and λ was set at 295 nm. For α-tocotrienol solubility and stability studies, an isocratic elution with MeOH-EtOH—CH3CN (40:30:30, v/v/v) as mobile phase for 10 min. α-tocotrienol was eluted at 6.7 min. For the simultaneous separation of α-tocotrienol and Compound 6 the following gradient elution was also used starting with H2O— MeOH—N(Et)3 (10:90:0.05, v/v/v) for 5 min, followed by isocratic MeOH—N(Et)3 (100:0.05, v/v) for another 10 min. The retention times were 4 and 14.1 for Compound 6 and α-tocotrienol, respectively. Standard curves for α-tocotrienol and Compound 6 in MeOH were prepared in the range of 0.4-50 μg/mL and 1-1000 μg/mL, respectively. Each compound was quantified using its calibration curve for compounds peak area versus its concentration.

The nature of a further series: Stability in rat plasma. Type of series: in vitro ADME. Conditions: 37° C. How it is done: The stability of each of α-tocotrienol and Compound 6 was studied at 37° C. in rat plasma. In amber vials, 50 μg/mL of each Compound were dissolved in the plasma. The solution was incubated at 37° C., and at interval times (0, 0.5, 1, 2, 4, 6, and 24 h), 50 μL samples were taken and mixed with 100 μL of methanol followed by centrifugation at 14,000 rpm for 10 min. Each supernatant was analyzed by HPLC. In rat plasma, Compound 6 concentration was 100% stable over the first 3 h. Its concentration then started to decrease at the […] to become 81% and 77% of the initial concentration, respectively. After 24 hours, only 43% of the initial concentration of Compound 6 was detectable. The slow rate of hydrolysis of Compound 6 compared to α-tocotrienol may bode well for expected enhanced metabolic stability.
as §1

Broadly, the pIC50 is the IC50 on a negative log10 scale, so that one unit is a factor of ten. High values mean a low IC50, low ones a high IC50.

pIC50: −log10 of the molar value.

On to `CC(C)=CCC/C(C)=C/CC/C(C)=C/CC[C@]1(C)CCc2c(C)c(OC(=O)/C=C\C(=O)O)c(C)c(C)c2O1` [Compound 6, (Z)-4-oxo-4-((R)-2,5,7,8-tetramethyl-2-((3E,7E)-4,8,12-trimethyltrideca-3,7,11-trienyl)chroman-6-yloxy)but-2-enoic acid], for which the pIC50 in series [1] (Mus musculus, Epithelial cell, 24 h) is 6.29; in series [1] it was 6.28. Further, in series [2], the “solubility relative to parent α-tocotrienol” value was ~1000 fold. The “chemical stability relative to the zero time concentration” value in series [3] is reported as 100%. Moreover, the “% of the initial concentration in rat plasma” value amounted to 81% in “Stability in rat plasma” (4th hour), 77% in “Stability in rat plasma” (5th hour) and 43% in “Stability in rat plasma” (after 24 hours). The “concentration stable in rat plasma” value in “Stability in rat plasma” (over the first 3 h) was determined as 100%.

The values above are taken from patent publication US8969303B2, “Tocotrienol esters” (First Tech International Limited, priority 2010, dated 2015).
